In article PMC8704709, “Improved Anticancer Activities of a New Pentafluorothio-Substituted Vorinostat-Type Histone Deacetylase Inhibitor” (Pharmaceuticals, 2021):

Assays:
[1] = tested on: chorioallantoic membrane (CAM) of fertilized chicken eggs; test: CAM assay (angiogenesis in fertilized chicken eggs); format: in vivo
Method: Anti-angiogenesis activity of SF5-SAHA was tested on the CAM (chorioallantoic membrane) of fertilized chicken eggs. The embryonic development was started by placing the eggs in a humidified (>60%) incubator in an upright position at a temperature of 37.8 °C. After 3 days, a hole of 2 mm was pierced in the eggshell top side in order to detach the developing CAM from the eggshell and let it sink into the allantoic cavity. After 10 days, the eggshell hole was broadened, and a silicone ring (1 cm Ø) was placed on the CAM, which was allowed to attach for 6 h. Then, 20 µL of SF5-SAHA containing medium or PBS (control) was added into the ring. The angiogenic states of the CAM were documented using a stereomicroscope equipped with a Kappa digital camera system (Distelkamp-Electronic, Kaiserslautern, Germany). Pictures were taken every 24 h until the finish of the experiment after 72 h. The CAM experiments were carried out with n = 3 eggs for each condition.

human recombinant HDAC1 = biological target: T1, human recombinant HDAC1 (Homo sapiens, UniProt Q13547); test: Fluorogenic subtype-specific HDAC assay; format: biochemical; conditions: cell-free enzymatic assay, 1–10 µM
T1 construct: purchased BPS Biosciences, San Diego, CA, USA

Hep-G2 cells = test: Western blot in Hep-G2 cells (acetyl-H3, Apaf-1, Bcl-2); format: cell-based, human; conditions: 24 h
Method: Western blots were performed as described earlier. Cells were seeded in 100 mm petri dishes, grown to almost confluency, treated for 24 h, washed and frozen, followed by lysis with RIPA Buffer, added with one cOmplete™ Mini protease Inhibitor tablet/10 mL (Roche), and quantification with Pierce^TM BCA Protein Assay Kit (Thermo Fisher Scientific). Thereafter protein levels were normalized to untreated controls so equal protein loading of 20 µg/lane. Laemmli Buffer and β-mercaptoethanol were added before probes were desaturated at 96 °C for 10 min. First, 7.5% or 12% SDS gels (Biorad, Munich, Germany) were loaded with proteins and electrophoresis was done. Thereafter, proteins were transferred to activated polyvinylidene difluoride membranes (PVDF) by electroblotting. Finally, the membranes were blocked with 1% BSA and incubated with primary antibodies over night at 4 °C. […] Only the Jurkat cells had already a high level of α-tubulin in untreated cells and, thus, drug-induced changes were not detectable in these cells.
Blots were washed three times with 1% TBS-Tween and incubated with anti-mouse or anti-rabbit peroxidase-coupled anti-IgG secondary antibodies (1:5000–1:10,000) at room temperature for 60 min. Subsequently, antibody bondage was illustrated using Clarity and Clarity Max ECL Western Blotting Substrates (Biorad, Munich, Germany) for detection and Celvin-S developer (Biostep, software SnapAndGo Vs 1.8.1) for development. […] Values were normalized to β-actin expression, which served as a loading control and compared to untreated control expressions which was set at 1. The mean ± SEM of the relative values to control are illustrated with Graph Pad Prism 8.

human recombinant HDAC6 = biological target: T2, human recombinant HDAC6 (Homo sapiens, UniProt Q9UBN7); test: Fluorogenic subtype-specific HDAC assay; format: biochemical; conditions: cell-free enzymatic assay, 1–10 µM
T2 construct: purchased BPS Biosciences, San Diego, CA, USA
T2 sequence (Q9UBN7 1-1215): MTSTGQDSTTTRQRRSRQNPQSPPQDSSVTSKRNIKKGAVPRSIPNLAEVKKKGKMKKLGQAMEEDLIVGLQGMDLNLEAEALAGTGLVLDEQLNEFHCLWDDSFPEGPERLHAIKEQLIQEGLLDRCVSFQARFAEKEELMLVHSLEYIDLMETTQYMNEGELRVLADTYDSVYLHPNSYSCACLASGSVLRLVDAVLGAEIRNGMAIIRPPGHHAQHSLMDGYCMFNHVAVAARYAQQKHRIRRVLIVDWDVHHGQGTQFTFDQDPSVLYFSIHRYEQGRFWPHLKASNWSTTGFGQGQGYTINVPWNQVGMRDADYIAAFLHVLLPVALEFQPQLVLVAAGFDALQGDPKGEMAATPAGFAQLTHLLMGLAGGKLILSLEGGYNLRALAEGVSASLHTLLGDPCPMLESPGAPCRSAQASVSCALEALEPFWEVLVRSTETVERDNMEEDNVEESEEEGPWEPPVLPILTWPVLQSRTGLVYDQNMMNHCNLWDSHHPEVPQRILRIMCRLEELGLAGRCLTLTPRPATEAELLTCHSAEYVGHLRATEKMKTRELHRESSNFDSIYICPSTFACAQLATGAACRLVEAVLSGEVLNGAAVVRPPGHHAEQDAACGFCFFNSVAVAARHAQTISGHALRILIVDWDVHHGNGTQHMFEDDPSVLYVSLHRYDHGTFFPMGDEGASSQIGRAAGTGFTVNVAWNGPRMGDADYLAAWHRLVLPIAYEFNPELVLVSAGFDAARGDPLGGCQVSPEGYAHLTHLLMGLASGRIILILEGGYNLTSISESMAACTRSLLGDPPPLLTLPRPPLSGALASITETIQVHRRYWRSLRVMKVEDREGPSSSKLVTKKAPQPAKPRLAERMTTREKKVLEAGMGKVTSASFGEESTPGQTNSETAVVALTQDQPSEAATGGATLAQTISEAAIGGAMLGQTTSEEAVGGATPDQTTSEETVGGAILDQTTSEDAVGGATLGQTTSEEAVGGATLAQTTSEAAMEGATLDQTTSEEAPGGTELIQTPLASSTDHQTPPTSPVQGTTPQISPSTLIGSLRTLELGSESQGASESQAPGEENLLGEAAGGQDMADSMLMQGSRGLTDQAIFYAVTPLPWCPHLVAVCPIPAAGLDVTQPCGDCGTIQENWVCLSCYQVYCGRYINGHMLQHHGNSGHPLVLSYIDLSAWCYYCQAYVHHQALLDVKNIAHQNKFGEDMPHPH

DU145 cells = test: Unspecific cytotoxicity (LDH release); format: cell-based, human; conditions: 1–10 µM, 3 and 24 h
Method: To exclude unspecific cytotoxicity as the driving mode of action for antiproliferative effects, the release of lactate dehydrogenase (LDH) from DU145 cells was determined after 3 h and 24 h of treatment using the Cytotoxicity Detection Kit PLUS LDH (Roche Diagnostics GmbH, Mannheim, Germany). The assay was performed as described earlier. Cytotoxicity was determined by subtracting the percentage of LDH release into the supernatant under control conditions of those from treated samples. Measurements were performed in duplicate in n = 3 independent experiments and mean percentage changes ± SEM as compared to controls are shown.

[2] = tested on: caspase-3 activity in DU145 cells; test: Apoptosis-specific caspase-3 activation (AC-DEVD-AMC cleavage); format: cell-based, human; conditions: 24 h treatment, 1–10 µM
Method: (§1) Changes in caspase-3 activity were measured by the cleavage of the fluorogenic substrate AC-DEVD-AMC (EMD Millipore, Billerica, MA, USA), as described previously. […] Subsequently, the lysates were incubated for 1 h at 37 °C with a substrate solution containing 20 μg/mL AC-DEVD-AMC, 20 mM HEPES, 10% glycerol and 2 mM DTT at pH 7.5.

[3] = tested on: caspase-3 activity in Hep-G2 cells; test: as above; format: cell-based, human; conditions: 24 h treatment, 1–10 µM
Method: as §1

T1 sequence (Q13547 whole entry): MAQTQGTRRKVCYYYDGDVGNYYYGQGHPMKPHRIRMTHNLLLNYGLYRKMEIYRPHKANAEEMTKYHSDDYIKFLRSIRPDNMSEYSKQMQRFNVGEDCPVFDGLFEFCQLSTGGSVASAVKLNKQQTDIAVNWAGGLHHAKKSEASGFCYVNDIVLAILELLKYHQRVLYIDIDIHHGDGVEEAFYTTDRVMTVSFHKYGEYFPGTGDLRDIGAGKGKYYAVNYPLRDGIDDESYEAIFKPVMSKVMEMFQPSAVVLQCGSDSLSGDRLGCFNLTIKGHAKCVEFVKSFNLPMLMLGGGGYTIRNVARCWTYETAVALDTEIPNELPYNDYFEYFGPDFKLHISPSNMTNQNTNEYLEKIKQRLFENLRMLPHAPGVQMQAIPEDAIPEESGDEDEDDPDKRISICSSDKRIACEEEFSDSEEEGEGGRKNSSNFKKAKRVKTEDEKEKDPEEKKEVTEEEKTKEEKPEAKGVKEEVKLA

SMILES: O=C(CCCCCCC(=O)Nc1ccc(S(F)(F)(F)(F)F)cc1)NO [SF5-SAHA]
- toxicity to chicken embryos ([1]; doses of 5 and 10 µM): no toxicity
- antiangiogenic effect on CAM ([1]; topical application, 5 or 10 µM, 72 h): reduced vessel diameters and reduced numbers of vessel branches
- HDAC1 inhibition (comparison) (human recombinant HDAC1): comparable activities against HDAC1
- Bcl-2 expression (Hep-G2 cells; 2 µM and 4 µM): downregulated
- Apaf-1 expression (Hep-G2 cells; 2 and 4 µM): increased Apaf-1 expression
- acetylated histone H3 level (Hep-G2 cells): dose-dependent rise of H3 acetylation
- HDAC6 inhibition (comparison) (human recombinant HDAC6): distinctly stronger HDAC6 inhibition than SAHA
- LDH release (unspecific cytotoxicity) (DU145 cells): did not induce significant increases in LDH release
- caspase-3 activation [2]: 5–6 times of the activity of untreated cells
- caspase-3 activation [3]: 5–6 times of the activity of untreated cells
